Test results taken from patent US20060057669A1, “Inactive transcription factor tif-ia and uses thereof” (priority 2002, published 2006).

How the values were obtained:
Pol I transcription = test: Pol I reporter plasmid pMrl930-BH co-transfection in NIH3T3 cells, Northern blot; format: cell-based; conditions: 0.25, 0.5 or 1 μg expression vector
Description: (C) Phosphorylation by RSK is necessary and sufficient for enhancing TIF-IA activity in vivo. NIH3T3 cells were co-transfected with 3 μg pMrl930-BH and lor 2.5 μg of pMT2-HA-CA-RSK2 (lanes 2, 3). Transcripts from the reporter plasmid were monitored on Northern blots. An ethidium bromide stain of cellular 18S and 28S rRNA is shown below.
(C) Transcriptional activity of TIF-IAS44A in vivo. NIH3T3 cells were cotransfected with 2.5 μg Pol I reporter plasmid (pMrl930-BH) and 0.25, 0.5 or 1 μg of pcDNA3.1-TIF-IA (lanes 2-4), TIF-IAS44A (lanes 5-7). Transcripts from the reporter plasmid were monitored on Northern blots. The amount of cellular 18S and 28S rRNA is shown below.
NIH3T3, HEK293T and CLL39 cells were cultured in Dulbecco's modified Eagles medium (DMEM) supplemented with 10% fetal calf serum. Cells were transfected with 5 μg of DNA per 10^6 cells using the calcium phosphate DNA coprecipitation method. Total RNA was isolated after 48 h and analyzed on Northern blots as described (Voit et al., EMBO J. 18 (1999), 1891-1899). Cellular pre-rRNA levels were monitored by hybridization to antisense RNA complementary to the first 155 nucleotides of unprocessed 45S pre-RNA. Transcripts from the rDNA reporter plasmid were monitored by hybridization to a riboprobe that is complementary to pUC sequences inserted between the rDNA promoter and terminator sequences of pMrl930-BH. […]

TIF-IB/SL1 = test: Co-immunoprecipitation of TIF-IB/SL1 with TIF-IA mutants from HEK293T cells; format: binding, human
Description: (B) A mutant that mimics phosphorylation of TIF-IA at S199 fails to interact with Pol I and TIF-IB. FLAG-tagged wild-type TIF-IA or the indicated point mutants were overexpressed in HEK293T cells and immunoprecipitated from cell lysates with anti-FLAG antibodies (M2 agarose). Co-precipitated Pol I and TIF-IB/SL1 were visualized on Western blots with anti-RPA116 and anti-TAFI110 antibodies.
Immunoprecipitations were carried out from human cells overexpressing FLAG-tagged TIF-IA. Cells were lysed in IP buffer, cleared by centrifugation at 10,000×g for 30 min, and the supernatants were incubated for 4 hr at 4° C. with anti-FLAG (M2) agarose (Sigma). To analyze the interaction of TIF-IA with TIF-IB/SL1, the immunoprecipitates were washed with IP buffer and TIF-IB/SL1 was visualized on immunoblots with α-TAFI110 antibodies. To monitor the interaction of TIF-IA with Pol I, the immunoprecipitates were washed with IP buffer containing 600 mM NaCl and Pol I was analyzed on Western blots using antibodies against the second largest subunit of Pol I (RPA116) or PAF67 (Seither et al., J. Biol. Chem. 382 (2001), 1163-1170).
Given the importance of mTOR-mediated alterations in the phosphorylation pattern on TIF-IA activity, one could predict that either phosphorylation of S199, dephosphorylation of S44 or both regulate the interaction of TIF-IA with the Pol I transcription apparatus. It was therefore examined whether the S→A or S→D point mutant(s) were capable of interacting with Pol I and/or TIF-IB/SL1. For this, TIF-IA was precipitated from cells overexpressing either FLAG-tagged wild-type TIF-IA or the respective S199 and S44 mutant(s), and co-precipitated Pol I and TIF-IB/SL1 were visualized on Western blots.

Substance: TIF-IA: wild-type human transcription initiation factor TIF-IA, accession No. AJ272050
- transcription of the Pol I reporter (Pol I transcription): enhanced transcription of the reporter
- interaction with TIF-IB/SL1 (co-precipitated TAFI110) (TIF-IB/SL1): interacted with both Pol I and TIF-IB/SL1
